The values that follow come from patent US10710994B2, “Oxadiazole transient receptor potential channel inhibitors” (Genentech, Inc., priority 2018, dated 2020).

The target of the test is human TRPA1 channel (Homo sapiens (Human), UniProt O75762). The test is described as follows: hTRPA1 CHO Ca2+ FLIPR Tetra assay: block of cinnamaldehyde induced calcium influx. In kind it is cell-based. As to conditions: CHO cells expressing TRPA1, Hill coefficient fixed to 1.5. An outline of the steps: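 TRPA1-expressing CHO cells loaded with calcium indicator dye (1 h 37° C, then 15 min room temperature) in HBSS/20 mM HEPES pH 7.4/0.02% BSA. IC50 from fits with fixed Hill coefficient.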
human TRPA1 channel, sequence (O75762 whole entry): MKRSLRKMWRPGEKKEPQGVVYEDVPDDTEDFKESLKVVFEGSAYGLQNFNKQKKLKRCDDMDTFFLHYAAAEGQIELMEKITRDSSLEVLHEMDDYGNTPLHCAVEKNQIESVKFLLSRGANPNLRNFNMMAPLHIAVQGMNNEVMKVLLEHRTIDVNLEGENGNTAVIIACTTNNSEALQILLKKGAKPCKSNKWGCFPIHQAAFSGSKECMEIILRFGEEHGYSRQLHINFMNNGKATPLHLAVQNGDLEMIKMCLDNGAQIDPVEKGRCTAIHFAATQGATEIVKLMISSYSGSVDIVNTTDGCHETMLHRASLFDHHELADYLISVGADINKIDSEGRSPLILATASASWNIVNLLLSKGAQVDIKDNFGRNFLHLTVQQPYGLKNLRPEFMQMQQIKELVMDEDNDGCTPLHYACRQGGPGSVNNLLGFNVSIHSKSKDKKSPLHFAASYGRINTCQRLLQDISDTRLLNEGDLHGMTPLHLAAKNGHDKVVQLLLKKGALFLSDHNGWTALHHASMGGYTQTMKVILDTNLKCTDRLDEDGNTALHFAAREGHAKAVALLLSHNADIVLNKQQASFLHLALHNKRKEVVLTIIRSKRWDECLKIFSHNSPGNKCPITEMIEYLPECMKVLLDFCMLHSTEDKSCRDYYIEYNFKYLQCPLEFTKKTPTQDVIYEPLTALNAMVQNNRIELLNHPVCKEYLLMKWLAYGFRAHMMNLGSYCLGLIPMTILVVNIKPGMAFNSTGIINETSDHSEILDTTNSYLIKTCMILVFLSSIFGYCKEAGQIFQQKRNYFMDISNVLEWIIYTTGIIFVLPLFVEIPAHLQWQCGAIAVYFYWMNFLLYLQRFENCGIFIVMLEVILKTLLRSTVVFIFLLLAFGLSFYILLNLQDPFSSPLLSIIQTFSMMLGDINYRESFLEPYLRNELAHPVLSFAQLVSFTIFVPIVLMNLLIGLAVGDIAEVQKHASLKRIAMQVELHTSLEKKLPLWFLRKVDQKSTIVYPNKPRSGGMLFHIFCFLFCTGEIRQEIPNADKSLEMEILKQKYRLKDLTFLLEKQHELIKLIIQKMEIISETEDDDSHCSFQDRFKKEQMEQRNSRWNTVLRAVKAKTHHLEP

Setting [1] is: read-out: hTRPA1 IC50 10 min, 10 minutes incubation with compound before cinnamaldehyde (about EC80).
The mark [2] stands for this setting: read-out: hTRPA1 IC50 90 min, 90 minutes incubation with compound before cinnamaldehyde (about EC80).

Like-named read-outs stand apart in the source and are kept apart here.

One may read the IC50 as the concentration needed to halve the response being measured.

For `Cc1ccnc2nc(N)n(Cc3nc([C@@H]4CO[C@@H](c5ccc(Cl)cc5)C4)no3)c(=O)c12` [Example 135, 2-amino-3-((3-((3R,5R)-5-(4-chlorophenyl)tetrahydro-furan-3-yl)-1,2,4-oxadiazol-5-yl)methyl)-5-methylpyrido[2,3-d] pyrimidin-4(3H)-one], the half-inhibitory concentration (IC50) under setting [1] turned out to be 10.4 nM and the IC50 under setting [2] worked out at 1.5 nM.
Take `Cn1cnc2nc(N)n(Cc3nc([C@@H]4CO[C@@H](c5ccc(C(F)(F)F)cc5)C4)no3)c(=O)c21` [Example 136, 2-amino-7-methyl-1-((3-((3R,5R)-5-(4-(trifluoromethyl)phenyl)tetrahydrofuran-3-yl)-1,2,4-oxadiazol-5-yl)methyl)-1,7-dihydro-6H-purin-6-one]: the IC50 by setting is: under setting [1], 97.3 nM; under setting [2], 11 nM.
For the compound `Cc1nc2ncn(C)c2c(=O)n1Cc1nc([C@@H]2CO[C@@H](c3ccc(F)cc3)C2)no1` [Example 137, 1-((3-((3R,5R)-5-(4-fluorophenyl)tetrahydro-furan-3-yl)-1,2,4-oxadiazol-5-yl)methyl)-2,7-dimethyl-1,7-dihydro-6H-purin-6-one], the IC50 turned out to be 64.1 nM under setting [1] and 13 nM under setting [2].
For `Cc1cnn2ncn(Cc3nc([C@@H]4CO[C@@H](c5ccc6cnn(C)c6c5)C4)no3)c(=O)c12` [Example 138, 5-methyl-3-((3-((3R,5R)-5-(1-methyl-1H-indazol-6-yl)tetrahydrofuran-3-yl)-1,2,4-oxadiazol-5-yl)methyl)pyrazolo[5,1-f][1,2,4]triazin-4(3H)-one] the same measures were 8.26 nM and 2.3 nM.
Taken in the same sequence, the figures for `Cc1cnn2ncn(Cc3nc([C@@H]4CO[C@@H](c5ccc6cn[nH]c6c5)C4)no3)c(=O)c12` [Example 139, 3-((3-((3R,5R)-5-(1H-indazol-6-yl)tetrahydrofuran-3-yl)-1,2,4-oxadiazol-5-yl)methyl)-5-methylpyrazolo[5,1-f] [1,2,4]triazin-4(3H)-one] were 19.5 nM and 7.5 nM.
For `Cn1nnc2cnn(Cc3nc([C@@H]4CO[C@@H](c5ccc(Cl)cc5)C4)no3)c(=O)c21` [Example 140, 5-((3-((3R,5R)-5-(4-chlorophenyl)tetrahydro-furan-3-yl)-1,2,4-oxadiazol-5-yl)methyl)-3-methyl-3,5-dihydro-4H-[1,2,3]triazolo[4,5-d]pyridazin-4-one], the half-inhibitory concentration (IC50) runs as follows: under setting [1], 80.1 nM; under setting [2], 43 nM.
Taken in the same sequence, the figures for `Cn1cnc2nnn(Cc3nc([C@@H]4CO[C@@H](c5ccc(Cl)cc5)C4)no3)c(=O)c21` [Example 141, 3-((3-((3R,5R)-5-(4-chlorophenyl)tetrahydro-furan-3-yl)-1,2,4-oxadiazol-5-yl)methyl)-5-methyl-3,5-dihydro-4H-imidazo[4,5-d][1,2,3] triazin-4-one] were 30.9 nM and 11 nM.
Taken in the same sequence, the figures for `Cc1cnn2ncn(Cc3nc([C@@H]4CO[C@@H](c5ccc6ncsc6c5)C4)no3)c(=O)c12` [Example 142, 3-((3-((3R,5R)-5-(benzo[d]thiazol-6-yl)tetrahydrofuran-3-yl)-1,2,4-oxadiazol-5-yl)methyl)-5-methylpyrazolo[5,1-f] [1,2,4]triazin-4(3H)-one] were 81.7 nM and 40 nM.
Taken in the same sequence, the figures for `Nc1nn2ncc(Cl)c2c(=O)n1Cc1nc([C@@H]2CO[C@@H](c3ccc(F)cc3)C2)no1` [Example 143, 2-amino-5-chloro-3-((3-((3R,5R)-5-(4-fluorophenyl)tetrahydro-furan-3-yl)-1,2,4-oxadiazol-5-yl)methyl)pyrazolo[5,1-f][1,2,4]triazin-4(3H)-one] were 56.9 nM and 6.6 nM.
With `Cn1cnc2nc(N)n(Cc3nc([C@@H]4CO[C@@H](c5ccc(F)cc5)C4)no3)c(=O)c21` [Example 144, 2-amino-1-((3-((3R,5R)-5-(4-fluorophenyl)tetrahydro-furan-3-yl)-1,2,4-oxadiazol-5-yl)methyl)-7-methyl-1,7-dihydro-6H-purin-6-one], the IC50 by setting is: under setting [1], 56.9 nM; under setting [2], 6.6 nM.
